Source: paper PMC4585259 (Frontiers in Pharmacology, 2015)
Where two headings read alike, the source gives them in different places.

Target: T1, rNav1.2 sodium channels (Rattus norvegicus, UniProt P04775)
T1 construct: host or cells: HEK-293
Assay: QPatch automated patch clamp, inhibition of sodium currents evoked by 5 Hz trains at three extracellular pH values
Format: cell-based
Settings: for class of pH-dependence pattern (cluster analysis): Ward's method on 18 variables of affinity, reversibility, onset
Method: HEK-293 cells stably expressing rNav1.2 sodium channels were obtained from NeuroSearch (Ballerup, Denmark). The cells were grown in Dulbecco's modified Eagle medium supplemented with 10% FBS. Prior to use, the cells were trypsinized and subsequently kept in suspension in the QPatch cell storage facility in CHO-S- SFM-II medium.
Composition of the extracellular solution was: (in mM): 140 NaCl, 3 KCl, 1 CaCl2 1 MgCl2, 0.1 CdCl2, 20 TEA-Cl, 5 HEPES, adjusted to pH 7.3, Osmolality: 320 mOsm. […] Drugs were synthesized in Gedeon Richter Plc. […] The full list of drugs, with their three-letter codes, concentration, as well as their main therapeutic indication and main mechanism of action are shown in Table 1. […] The choice of concentrations used in this study may seem unusually high.
Data were sampled at a frequency of 25 kHz and filtered at 5 kHz. Junction potential was calculated to be −11 mV and was corrected for. […] Cells having membrane resistance < 500 MOhm, series resistance > 9 MOhm, or capacitance > 22 pF were excluded from analysis. The experimental protocol was also identical to the one used in our previous study: sodium channels were activated by 5 Hz trains of 5 depolarizations (−90 to −10 mV) repeated in every 20 s. In this study, however, the same control–drug-application–washout sequence was repeated four times: at neutral, acidic, alkalic, and again neutral pH. The peak amplitudes of sodium currents throughout the whole experiment are shown plotted against time in Figure 1 and Supplementary Figure 1.
Initial analysis, including subtraction of leak and capacitive artifacts, as well as peak detection were done in the QPatch software. […] All experiments were normalized to the amplitude of the current evoked by the first depolarization of the last train under control conditions. […] For all four drug applications in an experiment, apparent affinity, onset and offset time constants as well as reversibility values were calculated. […] (This method is equivalent to applying the Lineweaver-Burk plot method using a single concentration.) Reversibility values were calculated from control (c), inhibited (i), and wash-out (w) amplitudes as follows: Reversibility = (w-i)/(c-i). Reversibility values should not be regarded as experimental platform-independent properties of compounds. […] However, reversibility values are a valuable source of information regarding physicochemical differences between individual drugs, or between effects of the same drug under different extracellular pH conditions. Onset and offset time constants were determined by single exponential fitting to individual experiments. For neutral pH numerical data were given as the average of the data from the first and the last drug applications. Thin black lines on Figure 1 and Supplemental Figure 1 show the average of five fitted exponentials, (not the exponential fitted to the averaged normalized amplitudes). The numerical values of apparent affinity, onset and offset time constants and reversibility are shown in Table 2, and their relative position is illustrated in Figure 2. Affinity and time constant values were logarithmically transformed for statistics, therefore we show their geometric mean. For recovery data no transformation was done, and we show arithmetic mean values. Significance values were calculated using paired, two-tailed Student's t-test based on five pairs of apparent affinity (log transform), time constant (log transform), or reversibility values obtained from five individual experiments. Because of the large number of comparisons in this study, we accepted p < 0.01 as significant. Cluster analysis was done using Ward's minimum variance method, with Euclidean distance measure. Data were normalized by subtracting the mean (after logarithmic transformation in the case of apparent affinity and time constants), and dividing by the standard deviation.

[1] = pH 6.0, concentration (lidocaine 300 μM, memantine 30 μM)
[2] = pH 6.0, single concentration (lidocaine 300 μM, memantine 30 μM), geometric mean of 5, read-out: apparent affinity
[3] = pH 7.3, concentration (lidocaine 300 μM, memantine 30 μM)
[4] = pH 7.3, single concentration (lidocaine 300 μM, memantine 30 μM), geometric mean of 5, read-out: apparent affinity
[5] = pH 8.6, concentration (lidocaine 300 μM, memantine 30 μM)
[6] = pH 8.6, single concentration (lidocaine 300 μM, memantine 30 μM), geometric mean of 5, read-out: apparent affinity

T1 sequence (P04775 whole entry): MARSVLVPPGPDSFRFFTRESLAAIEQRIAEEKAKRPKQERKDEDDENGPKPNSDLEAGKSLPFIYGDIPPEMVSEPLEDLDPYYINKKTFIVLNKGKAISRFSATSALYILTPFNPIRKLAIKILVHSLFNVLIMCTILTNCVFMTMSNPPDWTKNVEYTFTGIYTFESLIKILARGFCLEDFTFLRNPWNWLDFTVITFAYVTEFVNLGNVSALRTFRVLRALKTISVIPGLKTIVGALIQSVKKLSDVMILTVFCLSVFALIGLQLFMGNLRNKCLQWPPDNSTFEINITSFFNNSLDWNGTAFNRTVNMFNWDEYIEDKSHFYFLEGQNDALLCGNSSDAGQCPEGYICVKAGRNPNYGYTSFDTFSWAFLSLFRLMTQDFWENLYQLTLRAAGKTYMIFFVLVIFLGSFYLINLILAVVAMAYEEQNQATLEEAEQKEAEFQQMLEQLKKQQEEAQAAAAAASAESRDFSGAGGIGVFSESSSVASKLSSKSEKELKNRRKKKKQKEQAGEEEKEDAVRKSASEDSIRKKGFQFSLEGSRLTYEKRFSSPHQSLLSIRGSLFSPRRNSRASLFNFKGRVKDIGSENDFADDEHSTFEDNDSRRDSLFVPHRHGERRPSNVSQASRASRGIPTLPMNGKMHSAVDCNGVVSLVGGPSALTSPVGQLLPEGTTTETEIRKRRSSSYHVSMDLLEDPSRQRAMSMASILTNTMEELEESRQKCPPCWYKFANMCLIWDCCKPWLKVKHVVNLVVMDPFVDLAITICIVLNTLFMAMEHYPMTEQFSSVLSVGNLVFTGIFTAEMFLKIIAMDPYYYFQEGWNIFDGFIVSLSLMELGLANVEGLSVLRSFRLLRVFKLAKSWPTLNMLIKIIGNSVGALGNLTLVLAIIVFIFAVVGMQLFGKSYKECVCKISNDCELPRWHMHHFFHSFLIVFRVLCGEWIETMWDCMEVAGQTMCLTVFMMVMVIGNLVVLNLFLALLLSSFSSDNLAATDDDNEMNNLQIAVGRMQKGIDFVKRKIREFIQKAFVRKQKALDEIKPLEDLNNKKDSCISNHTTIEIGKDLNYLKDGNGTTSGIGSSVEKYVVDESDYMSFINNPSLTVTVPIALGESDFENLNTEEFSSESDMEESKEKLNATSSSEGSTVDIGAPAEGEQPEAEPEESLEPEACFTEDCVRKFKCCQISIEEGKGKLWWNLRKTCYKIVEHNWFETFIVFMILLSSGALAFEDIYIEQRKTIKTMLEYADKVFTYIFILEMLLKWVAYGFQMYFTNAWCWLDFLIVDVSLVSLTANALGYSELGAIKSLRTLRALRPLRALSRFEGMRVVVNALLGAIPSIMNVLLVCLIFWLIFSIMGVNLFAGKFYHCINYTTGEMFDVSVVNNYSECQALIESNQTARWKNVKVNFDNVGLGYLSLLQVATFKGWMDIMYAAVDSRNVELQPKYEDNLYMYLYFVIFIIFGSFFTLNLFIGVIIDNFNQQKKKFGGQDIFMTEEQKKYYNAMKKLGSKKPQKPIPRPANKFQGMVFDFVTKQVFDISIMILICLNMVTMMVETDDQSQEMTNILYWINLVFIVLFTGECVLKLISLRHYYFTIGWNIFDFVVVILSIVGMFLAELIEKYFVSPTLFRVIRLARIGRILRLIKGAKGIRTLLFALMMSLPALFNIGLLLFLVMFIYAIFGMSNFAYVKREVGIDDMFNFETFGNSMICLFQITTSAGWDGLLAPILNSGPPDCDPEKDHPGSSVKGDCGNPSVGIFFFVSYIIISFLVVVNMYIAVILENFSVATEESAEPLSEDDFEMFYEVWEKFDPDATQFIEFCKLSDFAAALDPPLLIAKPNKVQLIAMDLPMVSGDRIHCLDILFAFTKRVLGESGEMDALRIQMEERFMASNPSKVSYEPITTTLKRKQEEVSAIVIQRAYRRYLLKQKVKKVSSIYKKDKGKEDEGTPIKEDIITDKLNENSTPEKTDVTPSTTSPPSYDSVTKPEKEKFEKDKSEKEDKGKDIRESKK

For CCN(CC)CC(=O)Nc1c(C)cccc1C [lidocaine], the “class of pH-dependence pattern (cluster analysis)” value (“class of pH-dependence pattern” for short) was “Class A”, the τoffset [1] was 8.49 s and the τonset [1] was 6.17 s. It also gave a τonset (pH 6.0, higher concentration: lidocaine 1000 μM, memantine 100 μM) of 5.20 s, a Kd (pH 6.0, higher concentration: lidocaine 1000 μM, memantine 100 μM, read-out: apparent affinity) of 1670 µM and a Kd [2] of 917 µM. The τoffset [3] was 7.59 s, the τonset [3] was 5.14 s and the τonset (pH 7.3, higher concentration: lidocaine 1000 μM, memantine 100 μM) was 5.20 s. For the same molecule, the Kd (pH 7.3, higher concentration: lidocaine 1000 μM, memantine 100 μM, read-out: apparent affinity) was 1030 µM, the Kd [4] was 806 µM and the τoffset [5] was 5.98 s. For the same molecule, the τonset [5] was 4.86 s, the τonset (pH 8.6, higher concentration: lidocaine 1000 μM, memantine 100 μM) was 5.60 s and the Kd (pH 8.6, higher concentration: lidocaine 1000 μM, memantine 100 μM, read-out: apparent affinity) was 677 µM. It also gave a Kd [6] of 515 µM, a Reversibility (pH=6.0, cc 300 mM) of 0.66 and a Kd (pH=6.0, cc 300 mM, read-out: Apparent Affinity) of 917 µM. The Kd (pH=6.0, cc 1000 mM, read-out: Apparent Affinity) was 1670 µM, the Kd (pH=7.3, cc 300 mM, read-out: Apparent Affinity) was 806 µM and the Kd (pH=7.3, cc 1000 mM, read-out: Apparent Affinity) was 1030 µM. It also gave a Kd (pH=8.6, cc 300 mM, read-out: Apparent Affinity) of 515 µM and a Kd (pH=8.6, cc 1000 mM, read-out: Apparent Affinity) of 677 µM.
Fc1ccc([C@@H]2CCNC[C@H]2COc2ccc3c(c2)OCO3)cc1 [paroxetine] was tested, and the “class of pH-dependence pattern” value was “Class C”, the “effect of alkalic pH on onset/offset kinetics” value (in words) was “acceleration of onset” and the “Ratio Reversibility” value (pH 6.0/7.3, cc 30 mM) was 1.674. The “Ratio Tau Offset” value (pH 6.0/7.3, cc 30 mM) was 0.896, the “Ratio Tau Onset” value (pH 6.0/7.3, cc 30 mM) was 1.411 and the “log Ratio App Aff” value (pH 6.0/7.3, cc 30 mM) was 0.413. For the same molecule, the “Ratio Reversibility” value (pH 6.0/8.6, cc 30 mM) was 6.394, the “Ratio Tau Offset” value (pH 6.0/8.6, cc 30 mM) was 1.191 and the “Ratio Tau Onset” value (pH 6.0/8.6, cc 30 mM) was 2.000. The “log Ratio App Aff” value (pH 6.0/8.6, cc 30 mM) was 0.762, the τoffset [1] was 33.83 s and the τonset [1] was 47.12 s. For the same molecule, the Kd [2] was 49.6 µM, the “Ratio Reversibility” value (pH 7.3/8.6, cc 30 mM) was 3.820 and the “Ratio Tau Offset” value (pH 7.3/8.6, cc 30 mM) was 1.329. For the same molecule, the “Ratio Tau Onset” value (pH 7.3/8.6, cc 30 mM) was 1.418, the “log Ratio App Aff” value (pH 7.3/8.6, cc 30 mM) was 0.349 and the τoffset [3] was 37.75 s. The τonset [3] was 33.39 s, the Kd [4] was 19.2 µM and the τoffset [5] was 28.40 s. For the same molecule, the τonset [5] was 23.55 s, the Kd [6] was 8.57 µM and the Reversibility (pH=6.0, cc 30 mM) was 0.65. For the same molecule, the Kd (pH=6.0, cc 30 mM, read-out: Apparent Affinity) was 49.6 µM, the Reversibility (pH=7.3, cc 30 mM) was 0.39 and the Kd (pH=7.3, cc 30 mM, read-out: Apparent Affinity) was 19.2 µM. It also gave a Reversibility (pH=8.6, cc 30 mM) of 0.10 and a Kd (pH=8.6, cc 30 mM, read-out: Apparent Affinity) of 8.57 µM.
Work on CNCCC(Oc1ccccc1OC)c1ccccc1 (centres unmarked) [nisoxetine] yielded a Kd (Apparent Affinity, pH=6.0, cc 100 mM) of 210 µM, a Kd (Apparent Affinity, pH=7.3, cc 100 mM) of 80.1 µM and a Kd (Apparent Affinity, pH=8.6, cc 100 mM) of 28.6 µM. For the same molecule, the “class of pH-dependence pattern” value was “Class F”, the Kd (apparent affinity, pH 6.0, single concentration (lidocaine 300 μM, memantine 30 μM), geometric mean of 5) was 210 µM and the Kd (apparent affinity, pH 7.3, single concentration (lidocaine 300 μM, memantine 30 μM), geometric mean of 5) was 80.1 µM. The Kd (apparent affinity, pH 8.6, single concentration (lidocaine 300 μM, memantine 30 μM), geometric mean of 5) was 28.6 µM, the “Ratio Reversibility” value (pH 6.0/7.3, cc 100 mM) was 1.076 and the “Ratio Tau Offset” value (pH 6.0/7.3, cc 100 mM) was 0.636. For the same molecule, the “Ratio Tau Onset” value (pH 6.0/7.3, cc 100 mM) was 0.550, the “log Ratio App Aff” value (pH 6.0/7.3, cc 100 mM) was 0.419 and the “Ratio Reversibility” value (pH 6.0/8.6, cc 100 mM) was 1.973. The “Ratio Tau Offset” value (pH 6.0/8.6, cc 100 mM) was 0.947, the “Ratio Tau Onset” value (pH 6.0/8.6, cc 100 mM) was 1.245 and the “log Ratio App Aff” value (pH 6.0/8.6, cc 100 mM) was 0.867. For the same molecule, the τoffset [1] was 19.60 s, the τonset [1] was 13.20 s and the “Ratio Reversibility” value (pH 7.3/8.6, cc 100 mM) was 1.833. For the same molecule, the “Ratio Tau Offset” value (pH 7.3/8.6, cc 100 mM) was 1.489, the “Ratio Tau Onset” value (pH 7.3/8.6, cc 100 mM) was 2.263 and the “log Ratio App Aff” value (pH 7.3/8.6, cc 100 mM) was 0.448. The τoffset [3] was 30.82 s, the τonset [3] was 23.99 s and the τoffset [5] was 20.70 s. For the same molecule, the τonset [5] was 10.60 s, the Reversibility (pH=6.0, cc 100 mM) was 0.75 and the Reversibility (pH=7.3, cc 100 mM) was 0.69. For the same molecule, the Reversibility (pH=8.6, cc 100 mM) was 0.38.
